Data: the NIST ThermoML archive (doi:10.1021/je034157t)
Numbers after ± are expanded uncertainties.

Conditions: Liquid

Compound | vapor or sublimation pressure (293.17 K) [kPa] | vapor or sublimation pressure (302.95 K) [kPa] | vapor or sublimation pressure (309.84 K) [kPa] | vapor or sublimation pressure (313.03 K) [kPa] | vapor or sublimation pressure (319.81 K) [kPa] | vapor or sublimation pressure (303.04 K) [kPa] | vapor or sublimation pressure (303.05 K) [kPa] | vapor or sublimation pressure (305.11 K) [kPa] | vapor or sublimation pressure (309.28 K) [kPa] | vapor or sublimation pressure (313.11 K) [kPa] | vapor or sublimation pressure (316.36 K) [kPa] | vapor or sublimation pressure (318.1 K) [kPa] | vapor or sublimation pressure (295.82 K) [kPa] | vapor or sublimation pressure (303.17 K) [kPa] | vapor or sublimation pressure (313.05 K) [kPa] | vapor or sublimation pressure (318.04 K) [kPa] | vapor or sublimation pressure (323.24 K) [kPa] | vapor or sublimation pressure (327.95 K) [kPa]
F[C@H]([C@H](F)C(F)(F)F)C(F)(F)C(F)(F)F (relative stereo) [(R*,S*)-1,1,1,2,2,3,4,5,5,5-decafluoropentane] | 34.49 ± 0.1 | 52.41 ± 0.11 | 68.93 ± 0.13 | 77.9 ± 0.15 | 99.95 ± 0.17 | – | – | – | – | – | – | – | – | – | – | – | – | –
C1CCOC1 [tetrahydrofuran] | – | – | – | – | – | 26.67 ± 0.08 | 26.68 ± 0.08 | 29.09 ± 0.08 | 34.5 ± 0.09 | 40.15 ± 0.09 | 45.51 ± 0.1 | 48.62 ± 0.1 | – | – | – | – | – | –
F[C@H]([C@@H](F)C(F)(F)C(F)(F)F)C(F)(F)F (relative stereo) [(R*,R*)-1,1,1,2,2,3,4,5,5,5-decafluoropentane] | – | – | – | – | – | – | – | 40.56 ± 0.09 | – | – | – | – | 26.69 ± 0.08 | 37.25 ± 0.09 | 56.54 ± 0.11 | 68.94 ± 0.12 | 84.1 ± 0.13 | 99.96 ± 0.14
